In PubChem BioAssay (NCI):
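A five-concentration, 48-hour dose response in 96-well plates underlies each endpoint, interpolated linearly between surrounding concentrations. GI50: concentration for 50% inhibition of growth. TGI denotes the concentration required for complete inhibition of growth.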

Tests used:
Assay in all cases: NCI-60 cell line screen, 48 h
U251 CNS = test system: U251 CNS
UACC-62 melanoma = test system: UACC-62 melanoma
PC-3 prostate = test system: PC-3 prostate
HCT-15 colon = test system: HCT-15 colon
EKVX NSCLC = test system: EKVX NSCLC
SF-295 CNS = test system: SF-295 CNS
DU-145 prostate = test system: DU-145 prostate
SK-MEL-2 melanoma = test system: SK-MEL-2 melanoma
NCI-H460 lung = test system: NCI-H460 lung
MALME-3M melanoma = test system: MALME-3M melanoma
HS 578T breast = test system: HS 578T breast
LOX IMVI melanoma = test system: LOX IMVI melanoma
A549 NSCLC = test system: A549 NSCLC
MDA-MB-435 = test system: MDA-MB-435
SK-OV-3 ovarian = test system: SK-OV-3 ovarian
OVCAR-8 ovarian = test system: OVCAR-8 ovarian
MDA-MB-468 breast = test system: MDA-MB-468 breast
RXF 393 renal = test system: RXF 393 renal
OVCAR-5 ovarian = test system: OVCAR-5 ovarian
SF-268 CNS = test system: SF-268 CNS
COLO 205 colon = test system: COLO 205 colon
786-0 renal = test system: 786-0 renal
HCC-2998 colon = test system: HCC-2998 colon
A498 renal = test system: A498 renal
NCI-H226 lung = test system: NCI-H226 lung
ACHN renal = test system: ACHN renal
MOLT-4 leukemia = test system: MOLT-4 leukemia
SN12C renal = test system: SN12C renal
SR leukemia = test system: SR leukemia
CAKI-1 renal = test system: CAKI-1 renal
KM12 colon = test system: KM12 colon
IGROV1 ovarian = test system: IGROV1 ovarian
SNB-19 CNS = test system: SNB-19 CNS
HT29 colon = test system: HT29 colon
RPMI-8226 leukemia = test system: RPMI-8226 leukemia
T-47D breast = test system: T-47D breast
NCI/ADR-RES ovarian = test system: NCI/ADR-RES ovarian
HCT-116 colon = test system: HCT-116 colon
TK-10 renal = test system: TK-10 renal
MDA-MB-231 breast = test system: MDA-MB-231 breast
OVCAR-3 ovarian = test system: OVCAR-3 ovarian
SK-MEL-28 melanoma = test system: SK-MEL-28 melanoma
UACC-257 melanoma = test system: UACC-257 melanoma
BT-549 breast = test system: BT-549 breast
HL-60(TB) leukemia = test system: HL-60(TB) leukemia
SF-539 CNS = test system: SF-539 CNS
SW-620 colon = test system: SW-620 colon
OVCAR-4 ovarian = test system: OVCAR-4 ovarian
M14 melanoma = test system: M14 melanoma
CCRF-CEM leukemia = test system: CCRF-CEM leukemia
NCI-H522 lung = test system: NCI-H522 lung
K-562 leukemia = test system: K-562 leukemia
HOP-62 NSCLC = test system: HOP-62 NSCLC
HOP-92 NSCLC = test system: HOP-92 NSCLC
SNB-75 CNS = test system: SNB-75 CNS
UO-31 renal = test system: UO-31 renal
SK-MEL-5 melanoma = test system: SK-MEL-5 melanoma
MCF7 breast = test system: MCF7 breast
NCI-H23 lung = test system: NCI-H23 lung

SMILES: Nc1nn2c(-c3cc4cc(Br)ccc4oc3=O)ccnc2c1N=Nc1ccccc1
- GI50 (U251 CNS): 2.01 µM
- TGI (U251 CNS): 4.4 µM
- GI50 (UACC-62 melanoma): 5.52 µM
- TGI (UACC-62 melanoma): 22.1 µM
- GI50 (PC-3 prostate): 2.92 µM
- TGI (PC-3 prostate): 9.32 µM
- GI50 (HCT-15 colon): 4.87 µM
- TGI (HCT-15 colon): > 100 µM
- GI50 (EKVX NSCLC): 3.29 µM
- TGI (EKVX NSCLC): 18 µM
- GI50 (SF-295 CNS): 2.1 µM
- TGI (SF-295 CNS): 4.88 µM
- GI50 (DU-145 prostate): 4.71 µM
- TGI (DU-145 prostate): > 100 µM
- GI50 (SK-MEL-2 melanoma): 3.96 µM
- TGI (SK-MEL-2 melanoma): 19.8 µM
- GI50 (NCI-H460 lung): 1.95 µM
- TGI (NCI-H460 lung): 5.05 µM
- GI50 (MALME-3M melanoma): 2.72 µM
- TGI (MALME-3M melanoma): 10.9 µM
- GI50 (HS 578T breast): 3.11 µM
- TGI (HS 578T breast): 17 µM
- GI50 (LOX IMVI melanoma): 3.09 µM
- TGI (LOX IMVI melanoma): 10.7 µM
- GI50 (A549 NSCLC): 3.42 µM
- TGI (A549 NSCLC): 29.3 µM
- GI50 (MDA-MB-435): 5.31 µM
- TGI (MDA-MB-435): > 100 µM
- GI50 (SK-OV-3 ovarian): 1.87 µM
- TGI (SK-OV-3 ovarian): 3.95 µM
- GI50 (OVCAR-8 ovarian): 2.24 µM
- TGI (OVCAR-8 ovarian): 5.36 µM
- GI50 (MDA-MB-468 breast): 2.21 µM
- TGI (MDA-MB-468 breast): 9.7 µM
- GI50 (RXF 393 renal): 1.99 µM
- TGI (RXF 393 renal): 4.95 µM
- GI50 (OVCAR-5 ovarian): 3.29 µM
- TGI (OVCAR-5 ovarian): 15.1 µM
- GI50 (SF-268 CNS): 2.12 µM
- TGI (SF-268 CNS): 5.66 µM
- GI50 (COLO 205 colon): 23.2 µM
- TGI (COLO 205 colon): > 100 µM
- GI50 (786-0 renal): 2.01 µM
- TGI (786-0 renal): 4.71 µM
- GI50 (HCC-2998 colon): 3.17 µM
- TGI (HCC-2998 colon): 14.8 µM
- GI50 (A498 renal): 1.97 µM
- TGI (A498 renal): 6.71 µM
- GI50 (NCI-H226 lung): 2.16 µM
- TGI (NCI-H226 lung): 5.84 µM
- GI50 (ACHN renal): 3.16 µM
- TGI (ACHN renal): 14.4 µM
- GI50 (MOLT-4 leukemia): 31.8 µM
- TGI (MOLT-4 leukemia): > 100 µM
- GI50 (SN12C renal): 1.91 µM
- TGI (SN12C renal): 4.92 µM
- GI50 (SR leukemia): 5.38 µM
- TGI (SR leukemia): > 100 µM
- GI50 (CAKI-1 renal): 5.55 µM
- TGI (CAKI-1 renal): 25.2 µM
- GI50 (KM12 colon): 3.32 µM
- TGI (KM12 colon): > 100 µM
- GI50 (IGROV1 ovarian): 4.57 µM
- TGI (IGROV1 ovarian): 33.9 µM
- GI50 (SNB-19 CNS): 1.94 µM
- TGI (SNB-19 CNS): 4.26 µM
- GI50 (HT29 colon): 3.13 µM
- TGI (HT29 colon): 11.5 µM
- GI50 (RPMI-8226 leukemia): 31.6 µM
- TGI (RPMI-8226 leukemia): > 100 µM
- GI50 (T-47D breast): 2.79 µM
- TGI (T-47D breast): 13.2 µM
- GI50 (NCI/ADR-RES ovarian): 2.07 µM
- TGI (NCI/ADR-RES ovarian): 4.54 µM
- GI50 (HCT-116 colon): 2.23 µM
- TGI (HCT-116 colon): 4.73 µM
- GI50 (TK-10 renal): 12.7 µM
- TGI (TK-10 renal): 37.2 µM
- GI50 (MDA-MB-231 breast): 1.99 µM
- TGI (MDA-MB-231 breast): 4.43 µM
- GI50 (OVCAR-3 ovarian): 3.24 µM
- TGI (OVCAR-3 ovarian): 23.9 µM
- GI50 (SK-MEL-28 melanoma): 5.02 µM
- TGI (SK-MEL-28 melanoma): 22.3 µM
- GI50 (UACC-257 melanoma): 11.8 µM
- TGI (UACC-257 melanoma): 40.9 µM
- GI50 (BT-549 breast): 1.92 µM
- TGI (BT-549 breast): 3.77 µM
- GI50 (HL-60(TB) leukemia): > 100 µM
- TGI (HL-60(TB) leukemia): > 100 µM
- GI50 (SF-539 CNS): 1.99 µM
- TGI (SF-539 CNS): 3.88 µM
- GI50 (SW-620 colon): 6.24 µM
- TGI (SW-620 colon): > 100 µM
- GI50 (OVCAR-4 ovarian): 2.89 µM
- TGI (OVCAR-4 ovarian): 15.3 µM
- GI50 (M14 melanoma): 16 µM
- TGI (M14 melanoma): > 100 µM
- GI50 (CCRF-CEM leukemia): 24.6 µM
- TGI (CCRF-CEM leukemia): > 100 µM
- GI50 (NCI-H522 lung): 1.9 µM
- TGI (NCI-H522 lung): 4.19 µM
- GI50 (K-562 leukemia): 26.7 µM
- TGI (K-562 leukemia): > 100 µM
- GI50 (HOP-62 NSCLC): 1.84 µM
- TGI (HOP-62 NSCLC): 4.23 µM
- GI50 (HOP-92 NSCLC): 2.21 µM
- TGI (HOP-92 NSCLC): 6.04 µM
- GI50 (SNB-75 CNS): 1.29 µM
- TGI (SNB-75 CNS): 3.18 µM
- GI50 (UO-31 renal): 11.1 µM
- TGI (UO-31 renal): 86.6 µM
- GI50 (SK-MEL-5 melanoma): 2.71 µM
- TGI (SK-MEL-5 melanoma): 8.1 µM
- GI50 (MCF7 breast): 3.24 µM
- TGI (MCF7 breast): 17.5 µM
- GI50 (NCI-H23 lung): 2.33 µM
- TGI (NCI-H23 lung): 5.57 µM
